According to article PMC9133015 (Nature Communications, 2022):
Where “and” joins values, the source holds several entries; their conditions need not be identical. Equal entries are not always repeated.

Experiments:
DYRK2 = target: T1, DYRK2 (Homo sapiens, UniProt Q92630); experiment: DYRKs kinase activity assay (33P-ATP, DYRKtide substrate): DYRK2; type: biochemical
T1 construct: purchased Reaction Biology Corporation (assay service)
T1 sequence (Q92630 1-601): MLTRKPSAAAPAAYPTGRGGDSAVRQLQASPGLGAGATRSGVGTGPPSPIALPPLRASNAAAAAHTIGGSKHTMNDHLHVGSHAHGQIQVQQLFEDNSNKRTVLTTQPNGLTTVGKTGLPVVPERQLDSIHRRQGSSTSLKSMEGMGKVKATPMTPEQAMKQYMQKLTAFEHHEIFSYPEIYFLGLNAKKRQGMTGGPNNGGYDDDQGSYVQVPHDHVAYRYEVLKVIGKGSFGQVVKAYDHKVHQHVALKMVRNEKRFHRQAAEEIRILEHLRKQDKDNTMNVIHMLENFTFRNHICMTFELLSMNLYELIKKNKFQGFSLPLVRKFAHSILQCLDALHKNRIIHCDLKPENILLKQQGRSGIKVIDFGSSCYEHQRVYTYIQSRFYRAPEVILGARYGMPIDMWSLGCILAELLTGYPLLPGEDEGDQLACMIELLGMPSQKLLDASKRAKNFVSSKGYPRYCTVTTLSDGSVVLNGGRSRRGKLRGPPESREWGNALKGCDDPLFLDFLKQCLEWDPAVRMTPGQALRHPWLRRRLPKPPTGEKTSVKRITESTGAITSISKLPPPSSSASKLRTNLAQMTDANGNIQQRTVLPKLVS

DYRK4 = target: T2, DYRK4 (Homo sapiens, UniProt Q9NR20); experiment: DYRKs kinase activity assay (33P-ATP, DYRKtide substrate): DYRK4; type: biochemical; details: for % Inhibition DYRK4: duplicates
T2 construct: purchased Reaction Biology Corporation (assay service)
T2 sequence (Q9NR20 1-520): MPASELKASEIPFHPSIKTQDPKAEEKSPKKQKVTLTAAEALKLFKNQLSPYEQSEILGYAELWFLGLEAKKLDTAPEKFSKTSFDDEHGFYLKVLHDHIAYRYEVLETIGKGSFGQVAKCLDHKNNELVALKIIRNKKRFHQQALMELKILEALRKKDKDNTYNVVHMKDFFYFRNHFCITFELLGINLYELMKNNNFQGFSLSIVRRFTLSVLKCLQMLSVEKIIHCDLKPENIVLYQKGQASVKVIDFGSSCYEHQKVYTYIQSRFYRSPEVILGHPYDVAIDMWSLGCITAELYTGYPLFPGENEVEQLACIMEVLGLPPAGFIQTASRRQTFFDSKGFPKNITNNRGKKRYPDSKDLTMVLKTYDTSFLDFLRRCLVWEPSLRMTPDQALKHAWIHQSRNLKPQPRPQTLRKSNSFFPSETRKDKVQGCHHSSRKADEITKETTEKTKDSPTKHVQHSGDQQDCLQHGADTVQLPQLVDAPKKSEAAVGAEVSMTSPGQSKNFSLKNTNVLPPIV

DYRK2 protein = target: T3, DYRK2 protein (Homo sapiens, UniProt Q92630); experiment: Microscale thermophoresis binding assay; details: for Fnorm: triplicates
T3 construct: 6xHis (N, cleaved yes); TEV protease cleavage site (N, cleaved yes); made in house; host or cells: E. coli BL21 (DE3)
T3 sequence (Q92630 72-479 isoform Q92630-2): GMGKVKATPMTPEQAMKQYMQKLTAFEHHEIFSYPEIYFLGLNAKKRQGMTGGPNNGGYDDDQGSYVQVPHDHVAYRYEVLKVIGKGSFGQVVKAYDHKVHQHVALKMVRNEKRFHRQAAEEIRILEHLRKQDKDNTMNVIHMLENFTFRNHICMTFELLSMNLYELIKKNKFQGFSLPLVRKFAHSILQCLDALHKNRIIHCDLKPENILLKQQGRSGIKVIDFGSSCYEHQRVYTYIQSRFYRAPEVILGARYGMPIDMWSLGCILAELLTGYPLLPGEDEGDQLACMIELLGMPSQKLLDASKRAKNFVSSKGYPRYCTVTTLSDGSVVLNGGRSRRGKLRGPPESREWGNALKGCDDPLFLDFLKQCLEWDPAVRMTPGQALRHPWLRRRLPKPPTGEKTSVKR

22Rv1 shDYRK2 cells = experiment: Anti-proliferation activity assay (CCK8, 72 h); type: cell-based, human
DU145 shDYRK2 cells = experiment: Anti-proliferation activity assay (CCK8, 72 h); type: cell-based, human
[1] = Homo sapiens, 22Rv1, read-out: inhibitory rate (%) mean
[2] = Homo sapiens, DU-145, read-out: inhibitory rate (%) mean

## CCN1CCN(C(=O)c2ccc(Nc3ncc(F)c(-c4ccc5nc(N(C)C)sc5c4)n3)nc2)CC1 [YK-2-69]
DYRK2; 0.00228624 µM, duplicates, read-out: % Inhibition DYRK2
  inhibition at 0.00228624 µM: 26.1%
DYRK2; 0.00685871 µM, duplicates, read-out: % Inhibition DYRK2
  inhibition at 0.00685871 µM: 53%
DYRK2; 0.0205761 µM, duplicates, read-out: % Inhibition DYRK2
  inhibition at 0.0205761 µM: 65.2%
DYRK2; 0.0617284 µM, duplicates, read-out: % Inhibition DYRK2
  inhibition at 0.0617284 µM: 82.1%
DYRK2; 0.185185 µM, duplicates, read-out: % Inhibition DYRK2
  inhibition at 0.185185 µM: 94.1%
DYRK2; 0.555556 µM, duplicates, read-out: % Inhibition DYRK2
  inhibition at 0.555556 µM: 96.8%
DYRK2; 5 µM, duplicates, read-out: % Inhibition DYRK2
  inhibition at 5 µM: 97.8%
DYRK2; read-out: DYRK2 IC50
  IC50: 9 nM
DYRK4
  IC50: > 1000 nM
DYRK4; 0.000762079 µM
  % Inhibition DYRK4: 1.66%
DYRK4; 0.00228624 µM
  % Inhibition DYRK4: -2.93% and -3.51%
DYRK4; 0.00685871 µM
  % Inhibition DYRK4: 3.37%
DYRK4; 0.0205761 µM
  % Inhibition DYRK4: 5.66%
DYRK4; 0.0617284 µM
  % Inhibition DYRK4: 18.67%
DYRK4; 0.185185 µM
  % Inhibition DYRK4: 25.42%
DYRK4; 0.555556 µM
  % Inhibition DYRK4: 42.15%
DYRK4; 1.66667 µM
  % Inhibition DYRK4: 56.81%
DYRK4; 5 µM
  % Inhibition DYRK4: 64.30%
DYRK4; read-out: % Inhibition DYRK4, 0.000762079 µM, duplicates
  inhibition at 0.000762079 µM: 2.99%
DYRK4; read-out: % Inhibition DYRK4, 0.00685871 µM, duplicates
  inhibition at 0.00685871 µM: 4.77%
DYRK4; read-out: % Inhibition DYRK4, 0.0205761 µM, duplicates
  inhibition at 0.0205761 µM: 7.57%
DYRK4; read-out: % Inhibition DYRK4, 0.0617284 µM, duplicates
  inhibition at 0.0617284 µM: 21.2%
DYRK4; read-out: % Inhibition DYRK4, 0.185185 µM, duplicates
  inhibition at 0.185185 µM: 29.7%
DYRK4; read-out: % Inhibition DYRK4, 0.555556 µM, duplicates
  inhibition at 0.555556 µM: 42.1%
DYRK4; read-out: % Inhibition DYRK4, 1.66667 µM, duplicates
  inhibition at 1.66667 µM: 54.7%
DYRK4; read-out: % Inhibition DYRK4, 5 µM, duplicates
  inhibition at 5 µM: 64.8%
DYRK4; vs DYRK2
  selectivity over DYRK4: more than 100 fold
DYRK2 protein
  Kd: 92 nM
DYRK2 protein; Ligand Concentration 1.52588e-9 M
  Fnorm: 967.581 ‰ and 966.546 ‰ and 966.864 ‰
DYRK2 protein; Ligand Concentration 3.05176e-9 M
  Fnorm: 966.58 ‰ and 965.007 ‰ and 967.223 ‰
DYRK2 protein; Ligand Concentration 6.10352e-9 M
  Fnorm: 966.992 ‰ and 966.91 ‰ and 966.101 ‰
DYRK2 protein; Ligand Concentration 1.2207e-8 M
  Fnorm: 967.371 ‰ and 966.328 ‰ and 967.725 ‰
DYRK2 protein; Ligand Concentration 2.44141e-8 M
  Fnorm: 967.449 ‰ and 966.053 ‰ and 966.951 ‰
DYRK2 protein; Ligand Concentration 4.88281e-8 M
  Fnorm: 966.087 ‰ and 966.251 ‰ and 967.971 ‰
DYRK2 protein; Ligand Concentration 9.76563e-8 M
  Fnorm: 964.723 ‰ and 963.783 ‰ and 964.77 ‰
DYRK2 protein; Ligand Concentration 1.95313e-7 M
  Fnorm: 965.362 ‰ and 964.006 ‰ and 962.948 ‰
DYRK2 protein; Ligand Concentration 3.90625e-7 M
  Fnorm: 961.623 ‰ and 962.98 ‰ and 964.971 ‰
DYRK2 protein; Ligand Concentration 7.8125e-7 M
  Fnorm: 963.524 ‰ and 964.437 ‰ and 962.941 ‰
DYRK2 protein; Ligand Concentration 1.5625e-6 M
  Fnorm: 963.3 ‰ and 963.031 ‰ and 962.056 ‰
DYRK2 protein; Ligand Concentration 3.125e-6 M
  Fnorm: 962.439 ‰ and 962.002 ‰ and 962.785 ‰
DYRK2 protein; Ligand Concentration 6.25e-6 M
  Fnorm: 962.791 ‰ and 963.606 ‰ and 963.319 ‰
DYRK2 protein; Ligand Concentration 1.25e-5 M
  Fnorm: 961.109 ‰ and 965.797 ‰ and 962.38 ‰
DYRK2 protein; Ligand Concentration 2.5e-5 M
  Fnorm: 962.063 ‰ and 963.029 ‰ and 959.958 ‰
DYRK2 protein; Ligand Concentration 5e-5 M
  Fnorm: 962.013 ‰ and 961.244 ‰ and 962.047 ‰
22Rv1 shDYRK2 cells; 22Rv1 shDYRK2 cells, even at 80 μM
  inhibitory activity on proliferation (in words): almost no inhibitory activity
22Rv1 shDYRK2 cells; [1]
  inhibition at 10 µM: 19.7%
  inhibition at 2.5 µM: 17.3%
  inhibition at 20 µM: 26.3%
22Rv1 shDYRK2 cells; Homo sapiens, 22Rv1 KD, inhibitor 0.625 uM, read-out: inhibitory rate (%) mean
  inhibition at 0.625 µM: 9.79%
22Rv1 shDYRK2 cells; Homo sapiens, 22Rv1 KD, inhibitor 1.25 uM, read-out: inhibitory rate (%) mean
  inhibition at 1.25 µM: 14.3%
22Rv1 shDYRK2 cells; Homo sapiens, 22Rv1 KD, inhibitor 5 uM, read-out: inhibitory rate (%) mean
  inhibition at 5 µM: 19.2%
22Rv1 shDYRK2 cells; Homo sapiens, 22Rv1 KD, inhibitor 40 uM, read-out: inhibitory rate (%) mean
  inhibition at 40 µM: 31.8%
22Rv1 shDYRK2 cells; Homo sapiens, 22Rv1 KD, inhibitor 80 uM, read-out: inhibitory rate (%) mean
  inhibition at 80 µM: 43.8%
22Rv1 shDYRK2 cells; Homo sapiens, 22Rv1 shDYRK2 cells, read-out: IC50 antiproliferative activity
  IC50: > 80000 nM
DU145 shDYRK2 cells; DU145 shDYRK2 cells, even at 80 μM
  inhibitory activity on proliferation (in words): almost no inhibitory activity
DU145 shDYRK2 cells; Homo sapiens, DU-145, DU145 KD, inhibitor 0.625 uM, read-out: inhibitory rate (%) mean
  inhibition at 0.625 µM: 7.98%
DU145 shDYRK2 cells; Homo sapiens, DU-145, DU145 KD, inhibitor 1.25 uM, read-out: inhibitory rate (%) mean
  inhibition at 1.25 µM: 10.3%
DU145 shDYRK2 cells; Homo sapiens, DU-145, DU145 KD, inhibitor 5 uM, read-out: inhibitory rate (%) mean
  inhibition at 5 µM: 13.5%
DU145 shDYRK2 cells; Homo sapiens, DU-145, DU145 KD, inhibitor 10 uM, read-out: inhibitory rate (%) mean
  inhibition at 10 µM: 15.4%
DU145 shDYRK2 cells; Homo sapiens, DU-145, DU145 KD, inhibitor 40 uM, read-out: inhibitory rate (%) mean
  inhibition at 40 µM: 17.2%
DU145 shDYRK2 cells; Homo sapiens, DU-145, DU145 KD, inhibitor 80 uM, read-out: inhibitory rate (%) mean
  inhibition at 80 µM: 18.1%
DU145 shDYRK2 cells; Homo sapiens, DU-145, DU145 shDYRK2 cells, read-out: IC50 antiproliferative activity
  IC50: > 80000 nM
DU145 shDYRK2 cells; [2]
  inhibition at 2.5 µM: 11.8%
  inhibition at 20 µM: 16%
